Experimental data: patent US10329317B2, “Quinoline derivative for use in the treatment and prevention of viral infections” (ABIVAX, priority 2015, dated 2019)

Legend:
[1] = biological target: T1, CBC complex (CBP20 and CBP80) (Homo sapiens, UniProt P52298+Q09161); test: UV-induced covalent bridging of purified recombinant CBP20 and CBP80 (SDS-PAGE / Western blot); type: binding; conditions: purified recombinant CBP20 and CBP80, UV light, resolved by SDS-PAGE
T1 construct: made in house
T1 sequence (Q09161 20-790 limits assumed): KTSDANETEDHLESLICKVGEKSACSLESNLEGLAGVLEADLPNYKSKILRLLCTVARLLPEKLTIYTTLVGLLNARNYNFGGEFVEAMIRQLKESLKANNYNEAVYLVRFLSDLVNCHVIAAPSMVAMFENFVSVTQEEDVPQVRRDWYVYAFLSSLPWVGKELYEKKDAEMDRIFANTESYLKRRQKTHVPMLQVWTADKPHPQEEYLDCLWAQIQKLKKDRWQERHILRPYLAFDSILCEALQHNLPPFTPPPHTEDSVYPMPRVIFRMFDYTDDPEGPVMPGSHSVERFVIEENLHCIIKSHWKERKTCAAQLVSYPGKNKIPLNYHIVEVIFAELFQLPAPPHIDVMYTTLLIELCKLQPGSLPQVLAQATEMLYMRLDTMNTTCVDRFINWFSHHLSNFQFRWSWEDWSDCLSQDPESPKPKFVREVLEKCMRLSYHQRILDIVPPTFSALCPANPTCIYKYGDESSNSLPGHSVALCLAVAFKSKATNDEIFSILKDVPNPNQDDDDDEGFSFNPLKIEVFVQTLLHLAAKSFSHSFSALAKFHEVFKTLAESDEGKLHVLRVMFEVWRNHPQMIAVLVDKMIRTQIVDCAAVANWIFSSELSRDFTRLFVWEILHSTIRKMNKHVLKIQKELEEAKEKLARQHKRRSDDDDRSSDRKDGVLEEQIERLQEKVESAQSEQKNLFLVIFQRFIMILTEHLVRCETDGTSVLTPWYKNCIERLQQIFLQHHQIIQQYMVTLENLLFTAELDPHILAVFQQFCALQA
T1 sequence (P52298 1-156): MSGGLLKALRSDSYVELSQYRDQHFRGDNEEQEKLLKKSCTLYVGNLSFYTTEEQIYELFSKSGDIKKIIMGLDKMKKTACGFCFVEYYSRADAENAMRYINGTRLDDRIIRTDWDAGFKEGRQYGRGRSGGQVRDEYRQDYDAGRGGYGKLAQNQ
Procedure: FIG. 1A. Compounds 1 and 2 interact with the CBC complex. Purified recombinant CBP20 and CBP80 proteins were incubated with increasing concentrations of Compound 2 (left panel) or Compound 1 (right panel, Gluc) and treated during 30 min (Compound 1) or 15 min (Compound 2) with UV light. […] Left panel: from left to right, incubation with 0.1 (lane 1), 1 (lane 2), 10 (lane 3) and 50 μM (lane 4) […]. Right panel: from left to right, incubation with 1 (lane 1), 10 (lane 2), 50 (lane 3), 100 μM (lane 4) and 200 μM (lane 5) of Compound 1.
The recombinant CBC complex, comprising CBP20 and CBP80, is prepared according to the protocol which has been described in Worch, R. et al. (Specificity of recognition of mRNA 5′ cap by human nuclear cap-binding complex. RNA 11, 1355-1363 (2005)).
Compound 1 can make covalent binding with purified CBC complex after […] irradiation with UV light at 365 nm.
The same results were obtained with the glucuronidated Compound 1, the more soluble derivative of Compound 2 that is produced as metabolite using human hepatocytes.

[2] = biological target: T2, Recombinant human CBC with capped RNA substrate (Homo sapiens, UniProt P52298+Q09161); test: Gel-mobility shift assay of CBC binding to capped RNA; conditions: Compound 1 5-100 μM, Compound 2 5-50 μM, m7GpppG 12 mM
T2 construct: made in house
T2 sequence (Q09161 20-790 limits assumed): T1 sequence (Q09161 20-790 limits assumed)
T2 sequence (P52298 1-156): T1 sequence (P52298 1-156)
Procedure: FIG. 1B. […] Recombinant human CBC was incubated with a capped RNA substrate and analyzed by native gel electrophoresis in order to resolve the different RNA and RNA-protein complexes: free RNA (lane 1), and CBC-RNA complexes (lanes 2-10) in the presence of 12 mM of m7GppG (lanes 10) or 5 μM, 10 μM or 50 μM of Compound 2 (lanes 2-5, respectively) and 5 μM, 10 μM, 50 μM or 100 μM of Compound 1 (lanes 6-9, respectively).
Recombinant human CBC was incubated with a capped RNA substrate in the presence of increasing concentrations of compound 1 or compound 2 or a m(7)GpppG cap analogue and analyzed by native gel electrophoresis in order to resolve the different RNA and RNA-protein complexes according to Mazza et al. (Large-scale induced fit recognition of an m(7)GpppG cap analogue by the human nuclear cap-binding complex. EMBO J. 21, 5548-5557 (2002).

Row | Compound | covalent bridging between CBP20 and CBP80 after UV irradiation [1] | competition of the complex between CBC and capped RNA [2]
1 | FC(F)(F)Oc1ccc(Nc2ccc3cccc(Cl)c3n2)cc1 [Compound 2, 8-chloro-N-(4-(trifluoromethoxy)phenyl)quinolin-2-amine] | dose-dependent covalent bridging | no competition
2 | Cn1c[n+]([C@@H]2O[C@H](COP(=O)(O)OP(=O)([O-])OP(=O)(O)OC[C@H]3O[C@@H](n4cnc5c(=O)[nH]c(N)nc54)[C@H](O)[C@@H]3O)[C@@H](O)[C@H]2O)c2nc(N)[nH]c(=O)c21 [m^7GpppG, reference compound] | – | competed
